# Reference: article PMC10282093, “Structural basis of α1A-adrenergic receptor activation and recognition by an extracellular nanobody” (Nature Communications, 2023)
# Values joined by “and” are separate entries in the source; they are usually repeats but may differ in a detail not shown here. Identical values can stand only once. Like-named read-outs stand apart in the source and are kept apart here.
# B1: Nb6: nanobody that engages the ICL3 of the inactive-state κ-opioid receptor (antibody, V domains shown)
# VH: QVQLQESGGGLVQAGESLRLSCAASGTIFRLYDMGWYRRVSGNQRELVASITSGGSTKYGDSVKGRFTISRDNAKNTVYLQMSSLKPEDTAVYYCNAEYRTGIWEELLDGWGQGTQVTVSS
# Experiments:
# [1] = molecular target: T1, α1AAR (Homo sapiens, UniProt P35348); assay: Glo-sensor cAMP signaling assay with engineered Gsq protein in HEK293T cells; conditions: HEK-293T
# T1 sequence (P35348 1-466): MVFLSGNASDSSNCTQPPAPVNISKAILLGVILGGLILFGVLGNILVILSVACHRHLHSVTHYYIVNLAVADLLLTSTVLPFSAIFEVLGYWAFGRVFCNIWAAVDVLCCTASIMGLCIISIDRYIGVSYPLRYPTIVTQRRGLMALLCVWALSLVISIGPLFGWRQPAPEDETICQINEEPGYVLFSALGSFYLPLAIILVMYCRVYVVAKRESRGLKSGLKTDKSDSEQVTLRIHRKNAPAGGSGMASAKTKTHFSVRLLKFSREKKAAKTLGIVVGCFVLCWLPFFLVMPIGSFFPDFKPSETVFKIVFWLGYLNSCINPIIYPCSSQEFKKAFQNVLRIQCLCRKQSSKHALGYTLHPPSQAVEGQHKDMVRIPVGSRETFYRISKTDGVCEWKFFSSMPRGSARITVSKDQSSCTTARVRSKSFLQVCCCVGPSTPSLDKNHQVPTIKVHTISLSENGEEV
# Method: In brief, pGloSensor™−22F plasmid, receptor plasmid, and Gsq plasmid were transfected into HEK293T cells. At 24 h after transfection, the cells were switched into a CO2-Independent Medium (Gibco) and incubated with GloSensor^TM cAMP reagent. The mixture was then transferred to a 96-well white plate. The 96-well plate is placed at 37 °C in the dark for 1 h, then placed at room temperature in the dark for 1 h before use. […] The result curves were calculated and fitted by GraphPad Prism 9.
# [2] = tested on: HEK293T cells (mock); assay: Glo-sensor cAMP assay, mock (negative control); type: cell-based
# Method: In brief, […] plasmid, receptor plasmid, and Gsq plasmid were transfected into HEK293T cells. At 24 h after transfection, the cells were switched into a CO2-Independent Medium (Gibco) and incubated with GloSensor^TM cAMP reagent. The mixture was then transferred to a 96-well white plate. The 96-well plate is placed at 37 °C in the dark for 1 h, then placed at room temperature in the dark for 1 h before use. […] The result curves were calculated and fitted by GraphPad Prism 9.
# [3] = molecular target: T2, α1AAR (Homo sapiens, UniProt P35348); assay: [3H]prazosin radioligand binding, Sf9 membranes; conditions: for [3H]prazosin binding: SupFig 5b, listed as Tam
# T2 sequence (P35348 1-370): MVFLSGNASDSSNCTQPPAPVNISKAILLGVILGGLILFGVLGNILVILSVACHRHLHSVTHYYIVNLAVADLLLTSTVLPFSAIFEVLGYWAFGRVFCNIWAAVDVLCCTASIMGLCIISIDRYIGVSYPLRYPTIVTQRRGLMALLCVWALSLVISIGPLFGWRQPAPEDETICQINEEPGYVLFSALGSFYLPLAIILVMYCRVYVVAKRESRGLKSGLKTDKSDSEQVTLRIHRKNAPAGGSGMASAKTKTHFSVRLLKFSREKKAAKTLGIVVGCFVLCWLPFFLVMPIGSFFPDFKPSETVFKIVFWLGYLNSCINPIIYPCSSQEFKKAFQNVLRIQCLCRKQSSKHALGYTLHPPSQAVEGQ
# Method: After centrifugation, the pellet was homogenized in binding buffer and used as the membrane fraction in binding assays. […] Receptors were incubated for 1 h at room temperature with various concentrations of ligand in a total volume of 100 µl. After the reaction, the mixture was trapped on Whatman GF/B glass filters. Bound and free radioligands were separated by washing with ice-cold binding buffer. Radioactivity was measured on a MicroBeta2 liquid scintillation counter (PerkinElmer).
molecule,measurement,setting,value
"NC[C@H](O)c1ccc(O)c(O)c1 [Noradrenaline, noradrenaline]",activation at 0.01 µM,"[1]; 5 min, read-out: α1AAR activation (Noradrenaline %), 10 nM NA, 5 min",27.1%
same,activation at 0.01 µM,"[1]; 5.5 min, read-out: α1AAR activation (Noradrenaline %), 10 nM NA, […]",32.4%
same,activation at 0.01 µM,"[1]; 0.1 h, read-out: α1AAR activation (Noradrenaline %), 10 nM NA, 6 min",36.3%
same,activation at 0.01 µM,"[1]; 6.5 min, read-out: α1AAR activation (Noradrenaline %), 10 nM NA, […]",40.4%
same,activation at 0.01 µM,"[1]; 7 min, read-out: α1AAR activation (Noradrenaline %), 10 nM NA, 7 min",44.7%
same,activation at 0.01 µM,"[1]; 0.125 h, read-out: α1AAR activation (Noradrenaline %), 10 nM NA, 7.5 min",51.2%
same,activation at 0.01 µM,"[1]; 8 min, read-out: α1AAR activation (Noradrenaline %), 10 nM NA, 8 min",54.9%
same,activation at 0.01 µM,"[1]; 8.5 min, read-out: α1AAR activation (Noradrenaline %), 10 nM NA, 8.5 min",60.5%
same,activation at 0.01 µM,"[1]; 0.175 h, read-out: α1AAR activation (Noradrenaline %), 10 nM NA, 10.5 min",78.1%
same,activation at 0.01 µM,"[1]; 11 min, read-out: α1AAR activation (Noradrenaline %), 10 nM NA, 11 min",83.6%
same,activation at 0.01 µM,"[1]; 11.5 min, read-out: α1AAR activation (Noradrenaline %), 10 nM NA, […]",88.1%
same,activation at 0.01 µM,"[1]; 0.2 h, read-out: α1AAR activation (Noradrenaline %), 10 nM NA, 12 min",90.9%
same,activation at 0.01 µM,"[1]; 12.5 min, read-out: α1AAR activation (Noradrenaline %), 10 nM NA, 12.5 min",92.5%
same,activation at 0.01 µM,"[1]; 13 min, read-out: α1AAR activation (Noradrenaline %), 10 nM NA, 13 min",95.2%
same,activation at 0.01 µM,"[1]; 0.225 h, read-out: α1AAR activation (Noradrenaline %), 10 nM NA, 13.5 min",98.2%
same,activation at 0.01 µM,"[1]; 14 min, read-out: α1AAR activation (Noradrenaline %), 10 nM NA, 14 min",99.3%
same,activation at 0.01 µM,"[1]; 14.5 min, read-out: α1AAR activation (Noradrenaline %), 10 nM NA, […]",99.1%
same,activation at 0.01 µM,"[1]; 0.25 h, read-out: α1AAR activation (Noradrenaline %), 10 nM NA, 15 min",102%
same,activation at 0.01 µM,"[1]; 15.5 min, read-out: α1AAR activation (Noradrenaline %), 10 nM NA, 15.5 min",102%
same,activation at 0.01 µM,"[1]; 16 min, read-out: α1AAR activation (Noradrenaline %), 10 nM NA, 16 min",101%
same,activation at 0.01 µM,"[1]; 17 min, read-out: α1AAR activation (Noradrenaline %), 10 nM NA, 17 min",99.9%
same,activation at 0.01 µM,"[1]; 17.5 min, read-out: α1AAR activation (Noradrenaline %), 10 nM NA, 17.5 min",99.3%
same,activation at 0.01 µM,"[1]; 0.3 h, read-out: α1AAR activation (Noradrenaline %), 10 nM NA, 18 min",99.3%
same,activation at 0.01 µM,"[1]; 18.5 min, read-out: α1AAR activation (Noradrenaline %), 10 nM NA, 18.5 min",99%
same,activation at 0.01 µM,"[1]; 19 min, read-out: α1AAR activation (Noradrenaline %), 10 nM NA, 19 min",96.4%
same,activation at 0.01 µM,"[1]; 0.325 h, read-out: α1AAR activation (Noradrenaline %), 10 nM NA, 19.5 min",97.2%
same,activation at 0.01 µM,"[1]; 20 min, read-out: α1AAR activation (Noradrenaline %), 10 nM NA, 20 min",96%
same,activation at 0.01 µM,"[1]; […], read-out: α1AAR activation (Noradrenaline %), 10 nM NA, 9 min",64.4%
same,activation at 0.01 µM,"[1]; […], read-out: α1AAR activation (Noradrenaline %), 10 nM NA, 16.5 min",100%
same,activation at 100 µM,"[1]; read-out: α1AAR activation (Noradrenaline %), NA Log[M] -4",86.3%
same,activation at 1 µM,"[1]; read-out: α1AAR activation (Noradrenaline %), NA Log[M] -6",105%
same,activation at 0.1 µM,"[1]; read-out: α1AAR activation (Noradrenaline %), NA Log[M] -7",82.8%
same,activation at 0.01 µM,"[1]; read-out: α1AAR activation (Noradrenaline %), NA Log[M] -8",45.2%
same,cAMP Glo-sensor signal (Noradrenaline %),"[2]; NA Log[M] -4, listed as NA",41.093% and 40.8624% and 40.5271%
same,cAMP Glo-sensor signal (Noradrenaline %),"[2]; NA Log[M] -5, listed as NA",20.1779% and 21.0064% and 19.7646%
same,cAMP Glo-sensor signal (Noradrenaline %),"[2]; NA Log[M] -6, listed as NA",7.941% and 8.285% and 8.539%
same,cAMP Glo-sensor signal (Noradrenaline %),"[2]; NA Log[M] -7, listed as NA",6.318% and 5.663% and 5.337%
same,cAMP Glo-sensor signal (Noradrenaline %),"[2]; NA Log[M] -8, listed as NA",5.486% and 4.494% and 5.028%
same,cAMP Glo-sensor signal (Noradrenaline %),"[2]; NA Log[M] -9, listed as NA",5.1702% and 5.365% and 5.344%
same,cAMP Glo-sensor signal (Noradrenaline %),"[2]; NA Log[M] -10, listed as NA",5.58% and 5.603% and 5.064%
same,cAMP Glo-sensor signal (Noradrenaline %),"[2]; NA Log[M] -11, listed as NA",6.233% and 5.97% and 5.757%
"CCOc1ccccc1OCCN[C@H](C)Cc1ccc(OC)c(S(N)(=O)=O)c1 [Tamsulosin, tamsulosin]",[3H]prazosin binding,[3]; Tam Log[M] -4,3.325% and 3.807% and 3.682%
same,[3H]prazosin binding,[3]; Tam Log[M] -5,5.496% and 6.839% and 6.881%
same,[3H]prazosin binding,[3]; Tam Log[M] -6,11.244% and 11.6216% and 10.1426%
same,[3H]prazosin binding,[3]; Tam Log[M] -7,16.0268% and 19.0266% and 22.7187%
same,[3H]prazosin binding,[3]; Tam Log[M] -8,68.1875% and 65.3346% and 66.6562%
same,[3H]prazosin binding,[3]; Tam Log[M] -9,89.8993% and 114.569% and 102.297%
same,[3H]prazosin binding,[3]; Tam Log[M] -10,91.4097% and 102.161% and 96.6541%
same,[3H]prazosin binding,[3]; Tam Log[M] -11,80.1028% and 92.7732% and 127.271%
B1,Normalized [3H]prazosin-binding,[3]; with 5 μM Nb6,88.7285% and 103.574% and 107.698%
